For data set [1] the following is noted: liver cancer patients; cited from earlier work.
Data set [2] deals with STAT3 signaling pathway. Nature of the data set: STAT3 signaling pathway activation after IL6 stimulation (STAT3-Y705 antibody). In kind it is cell-based. The text has this: The conventional western blotting method was adopted.
STAT3-Y705 (EP2147Y) antibody was purchased from Abcam.

Data set [3] relates to plasma membrane cholesterol. Nature of the data set: Filipin III-based cholesterol staining of the plasma membrane. In kind it is cell-based. As for the experimental part:
(§1) Reagents: Cholesterol Cell-Based Detection Assay Kit (No10009779) was purchased from Cayman. Human sIL6R ELISA kit (BMS214) was purchased from ebioscience. The relevant experiments were conducted according to the instructions.

Data set [4] relates to esophageal cancer cell line ECA109. Kind of data set: CCK8 proliferation experiment, ECA109. In kind it is cell-based, human. How it is done: (§2) 1) On the first day, after routine trypsinization and counting of cells in a 60 mm culture dish, the cells were seeded onto four 96-well plates at a density of 5000 cells/well.
(§3) 2) On the second day, after about 24 hours of culture, the cell growth was in the logarithmic growth phase and the culture medium was replaced with a new culture medium with different concentrations of SOAT1 inhibitor in a volume of 100 μL/well. 10 μM group, 20 μM group and control group (1‰ DMSO) were set, each group included three repeated wells. 10% CCK8 (100 μL/well) was added to the wells of one 96-well plate, and OD value of 0 h was measured at 450 nm after 1 h, with cell-free wells as background.
(§4) 3) On the third day, 10% CCK8 was added to the wells of one 96-well plate and OD value of 24 h was measured at 450 nm after 1 h.
(§5) 4) On the fourth day, 10% CCK8 was added to the wells of one 96-well plate and OD value of 48 h was measured at 450 nm after 1 h.
(§6) 5) On the fifth day, 10% CCK8 was added to the wells of the last 96-well plate and OD value of 72 h was measured at 450 nm after 1 h.
(§7) 6) OD values at all time points were summarized and a growth curve was drawn.

The subject of data set [5] is Huh7 liver cancer cell line. Nature of the data set: CCK8 proliferation experiment, Huh7. In kind it is cell-based, human. Conditions: inhibitor 10 μM and 20 μM groups vs 1‰ DMSO, OD 450 nm at 0-72 h. As for the experimental part: as §2, §3, §4, §5, §6, §7
Data set [6] has as its system human hepatocarcinoma HepG2 liver orthotopic transplantation tumors. Kind of data set: Liver orthotopic transplantation tumors in nude mice bearing human hepatocarcinoma HepG2 cells. It is filed as in vivo. The text has this:
A total of 30 female Nu/Nu nude mice aged 5-7 weeks and weighing 18.0-21.0 g were purchased from Beijing Vital River Laboratory Animal Technology Co., Ltd., animal certificate was SCXK (JING)-2015-0001. The test animals were kept in sterile independent ventilation cages (IVC), with 5-6 mice per cage. The litter was corncob litter sterilized by ^60Co radiation, with a particle size of 4-6 mm. The animals were fed with sterilized feed specially formulated for mice and were given pure water to drink freely. The temperature in the animal laboratory was maintained at about 25° C., the relative humidity was maintained at 40-70%, and the daily light was 12 hours.
The cells in the logarithmic growth phase were digested with trypsin and collected, washed and resuspended with normal saline, so that the final cell concentration was about 1×10^7 cells/ml suspension. 0.2 ml of tumor cell suspension was injected under the skin of the right forelimb axillary in nude mice, and the tumor-bearing nude mice were established for passage and preservation.
When the subcutaneous tumor volume of the nude mice for preservation grew to 1000-1500 mm^3, tumors were removed and cut into tumor blocks of about 1.0 mm^3 for use under aseptic conditions. The nude mice to be operated were anesthetized and fixed on the operating table, and the abdominal skin was disinfected. An incision of about 1 cm was made in the upper right abdomen to expose the liver and the animal was covered with surgical drapes. The prepared tumor block was put into a special inoculation trocar, the tumor block was implanted into the liver with the trocar, and the bleeding wound was treated with a sterile cotton swab to stop bleeding. Then the liver after the operation was put back into the abdominal cavity of the mouse, and the abdominal muscles and skin of the incision were sutured sequentially with No. 4/0 surgical suture needle.
The experiment preset model control group and U18666A group.
Model animals were examined by B-ultrasound 3 weeks after operation, and grouped randomly according to B-ultrasound results. The test drug U18666A was administered intraperitoneally, once a day.
After the experiment, the animals were sacrificed by cervical dislocation. The liver was dissected, and the tumors visible to the naked eye were removed and weighed. All dissected tissues were preserved in a 4% formaldehyde solution for routine pathological examination.
Data were represented as x±SD; Tumor growth inhibition rate=(tumor weight in the control group−tumor weight in the administration group)/tumor weight in the control group×100%. All analyses were completed with GrghPad Prism software, and P<0.05 was considered to indicate a significant difference.

In data set [7] the test system is cervical cancer cell line Hela. Kind of data set: CCK8 proliferation experiment, Hela. It is filed as cell-based, human. As for the experimental part:
as §2, §3, §4, §5, §6, §7

For data set [8], the system named is HepG2 liver cancer cell line. Nature of the data set: CCK8 proliferation experiment, HepG2. In kind it is cell-based, human. To be noted: inhibitor 10 μM and 20 μM groups vs 1‰ DMSO, OD 450 nm at 0-72 h. How it is done: (§8) 1) On the first day, PLC/PRF/5 or HepG2 cells were seeded onto a 6-well plate.
(§9) 2) On the second day, when the cell confluence was about 40-50%, NPC1-sh or NPC1-control lentivirus was added at 200 μl/well for virus infection.
(§10) 3) On the third day, puromycin was added to infected PLC/PRF/5 or HepG2 cells to a final concentration of 2 μg/mL for selection.
(§11) 4) On the sixth day, part of the cells was collected according to the conventional method for CCK8 experiment, and part of the cells were lysed to obtain proteins and subjected to Western blotting. […]
(§12) 2) On the second day, after about 24 hours of culture, the cell growth was in the logarithmic growth phase and the culture medium was replaced with a new culture medium with different concentrations of SOAT1 inhibitor in a volume of 100 μL/well. […] 10% CCK8 (100 μL/well) was added to the wells of one 96-well plate, and OD value of 0 h was measured at 450 nm after 1 h, with cell-free wells as background.
as §4, §5
(§13) 5) On the fifth day, 10% CCK8 was added to the wells of the last 96-well plate and OD value of 72 h was measured at 450 nm after 1 h. […]

The test system of data set [9] is IL6R. Nature of the data set: sIL6R ELISA, shedding of IL6R from the cell membrane. It is filed as cell-based. As for the experimental part:
as §1
In general terms: An ELISA detects its analyte on a solid surface through an enzyme-linked reagent.

Data set [10] relates to PLC/PRF/5 liver cancer cell line. Kind of data set: CCK8 proliferation experiment, PLC/PRF/5. It is filed as cell-based, human. To be noted: inhibitor 10 μM and 20 μM groups vs 1‰ DMSO, OD 450 nm at 0-72 h. How it is done: as §8, §9, §10, §11, §12, §4, §5, §13
Data set [11] relates to leukemia cell line Jurkat. Nature of the data set: CCK8 proliferation experiment, Jurkat. In kind it is cell-based, human. How it is done: as §2, §3, §4, §5, §6, §7
Data set [12] has as its system colon cancer cell line HCT116. Kind of data set: CCK8 proliferation experiment, HCT116. In kind it is cell-based, human. How it is done: as §2, §3, §4, §5, §6, §7
For data set [13], the system named is liver cancer cells. Kind of data set: Migration of liver cancer cells. It is filed as cell-based.
For data set [14], the system named is MHCC97H liver cancer cell line. Nature of the data set: CCK8 proliferation experiment, MHCC97H. In kind it is cell-based, human. Conditions: inhibitor 10 μM and 20 μM groups vs 1‰ DMSO, OD 450 nm at 0-72 h. How it is done:
as §2, §3, §4, §5, §6, §7

The subject of data set [15] is non-small cell lung cancer cell line A549. Nature of the data set: CCK8 proliferation experiment, A549. In kind it is cell-based, human. As for the experimental part:
as §2, §3, §4, §5, §6, §7

Several values for one entry are separate records, joined by “and”; a condition that tells them apart may be missing. Equal values may be shown once.

With `CNC(=O)c1cc(Oc2ccc(NC(=O)Nc3ccc(Cl)c(C(F)(F)F)c3)cc2)ccn1` [Sorafenib], in data set [1], the “prolongation of the survival period of patients” value is on record as 3 months.

Consider `CCN(CC)CCO[C@H]1CC[C@@]2(C)C(=CC[C@@H]3[C@@H]2CC[C@]2(C)C(=O)CC[C@@H]32)C1.Cl` [U18666A], for which the “activation of STAT3 signaling pathway” value in data set [2] is “blocked”. Moreover, the plasma membrane cholesterol entry in data set [3] is recorded as “significantly down-regulated”. For the same compound, the “proliferation of common cancer cell lines” value in data set [4], in data set [7], in data set [11], in data set [12] and in [15] was “significantly inhibited the proliferation” in each case. Further, the “proliferation of liver cancer cells (CCK8 growth curve)” value in data set [5], in [8], in [10] and in [14] was “significantly inhibit the proliferation” in each case. The “Average weight (g) Begining” value in [6] (body weight at beginning, nude mice, x±SD) came to 23.74 ± 0.86 g. In [6] (body weight at end, i.p., 20 mg/kg, once a day, 23 days, x±SD), the “Average weight (g) End” value was 23.34 ± 2.29 g. Further, the “Tumor growth inhibition rate (%)” value in data set [6] (by tumor weight vs control group, i.p., 20 mg/kg, once a day, 23 days) came to 62.1%. Besides, the “Tumor weight” value in data set [6] (group mean x±SD, i.p., 20 mg/kg, once a day, 23 days) was determined as 0.3574 ± 0.3914 g. Moreover, the “Tumor weight (g), individual tumors” value in data set [6] (single animals of the group, i.p., 20 mg/kg, once a day, 23 days, 20 mg/kg) was 0.0333 g and 0.0916 g and 0.0957 g and 0.0958 g and 0.1653 g and 0.3852 g and 0.5450 g and 0.5512 g and 1.2533 g. Further, the “shedding of IL6R receptor on the cell membrane” value in data set [9] is listed as “increased shedding”. Also, the “migration of liver cancer cells” value in data set [13] is listed as “significantly inhibit”.

The values above are taken from patent US20210263039A1, “APPLICATION OF NIEMANN-PICK C1 PROTEIN IN DIAGNOSIS AND TREATMENT OF CANCER” (BEIJING PROTEOME RESEARCH CENTER, priority 2018, published 2021).
